# From ChEMBL document CHEMBL3580643, “Structure-Activity Relationships of Neplanocin A Analogues as S-Adenosylhomocysteine Hydrolase Inhibitors and Their Antiviral and Antitumor Activities” (J Med Chem, 2015)
# How the values were obtained:
# [1] = tested on: MDA-MB-231; assay: Cytotoxicity against human MDA-MB-231 cells assessed as inhibition of cell proliferation after 72 hrs by sulforhodamine B assay; format: functional, cell-based; details: MDA-MB-231, 72 h
# [2] = tested on: HCT-116; assay: Cytotoxicity against human HCT116 cells assessed as inhibition of cell proliferation after 72 hrs by sulforhodamine B assay; format: functional, cell-based; details: HCT-116, 72 h
# [3] = tested on: A549; assay: Cytotoxicity against human A549 cells assessed as inhibition of cell proliferation after 72 hrs by sulforhodamine B assay; format: functional, cell-based; details: A549, 72 h
# [4] = tested on: PC-3; assay: Cytotoxicity against human PC3 cells assessed as inhibition of cell proliferation after 72 hrs by sulforhodamine B assay; format: functional, cell-based; details: PC-3, 72 h
# [5] = Cytotoxicity against human SNU638 cells assessed as inhibition of cell proliferation after 72 hrs by sulforhodamine B assay; format: functional, cell-based; details: SNU-638, 72 h
# [6] = Cytotoxicity against human SKHEP1 cells assessed as inhibition of cell proliferation after 72 hrs by sulforhodamine B assay; format: functional, cell-based; details: SK-HEP1, 72 h
# [7] = biological target: Adenosylhomocysteinase (Homo sapiens, UniProt P23526); assay: Inhibition of recombinant human placental AdoHcy hydrolase expressed in Escherichia coli BL21 using AdoHcy as substrate preincubated for 10 mins followed by substrate addition measured after 20 mins by DTNB coupled assay
# [8] = Cytotoxicity against CB1 cells (unknown origin) assessed as cell viability up to 100 uM after 3 days by MTT assay; format: cell-based; details: cb1, 72 h
# [9] = tested on: Picornaviridae; assay: Antiviral activity against picornavirus infected in CB1 cells assessed as inhibition of viral replication after 3 days by MTT assay; format: functional, organism-based; details: CB1, 72 h
# [10] = tested on: Vesicular stomatitis virus; assay: Antiviral activity against vesicular stomatitis virus infected in human HeLa cells assessed as inhibition of viral replication after 3 days by MTT assay; format: functional, organism-based; details: 72 h
# [11] = tested on: HeLa; assay: Cytotoxicity against human HeLa cells assessed as cell viability up to 40 uM after 3 days by MTT assay; format: cell-based; details: 72 h
# Sequence of Adenosylhomocysteinase (P23526 whole entry): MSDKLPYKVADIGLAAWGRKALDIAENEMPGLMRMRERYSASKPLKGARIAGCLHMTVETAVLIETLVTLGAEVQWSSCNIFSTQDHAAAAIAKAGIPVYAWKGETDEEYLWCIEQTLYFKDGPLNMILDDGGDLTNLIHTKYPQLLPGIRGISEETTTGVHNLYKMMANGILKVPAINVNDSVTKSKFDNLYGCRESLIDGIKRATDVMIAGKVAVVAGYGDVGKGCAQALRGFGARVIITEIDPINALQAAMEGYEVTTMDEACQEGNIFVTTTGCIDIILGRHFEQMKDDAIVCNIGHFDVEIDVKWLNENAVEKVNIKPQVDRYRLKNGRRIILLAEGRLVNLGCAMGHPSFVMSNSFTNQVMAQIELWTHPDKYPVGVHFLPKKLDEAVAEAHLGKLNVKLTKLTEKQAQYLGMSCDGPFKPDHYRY
Compound,IC50 [1] [µM],IC50 [2] [µM],IC50 [3] [µM],IC50 [4] [µM],IC50 [5] [µM],IC50 [6] [µM],IC50 [7] [µM],Activity [8],EC50 [9] [µM],EC50 [10] [µM],Activity [11]
Nc1nccc2c1ncn2[C@@H]1C=C(CO)[C@@H](O)[C@H]1O,0.3,0.26,1.4,9.39,0.91,0.72,,,,,
Nc1ncnc2c1ncn2[C@@H]1C=C(CCO)[C@@H](O)[C@H]1O,2.64,1.72,8.95,> 100,2.31,6.12,,,,,
CNc1ncnc2c1ccn2[C@@H]1C=C(CO)[C@@H](O)[C@H]1O,49.5,> 100,> 100,> 100,> 100,99.2,> 100,,,,
OCC1=C[C@@H](n2ccc3c(O)ncnc32)[C@H](O)[C@@H]1O,> 100,> 100,> 100,> 100,> 100,> 100,> 100,,,,
Nc1ncnc2c1ccn2[C@@H]1C(F)=C(CO)[C@@H](O)[C@H]1O,0.94,0.94,16.8,1.3,0.96,1.39,> 100,Non-toxic,2.34,,
CNc1ncnc2c1ccn2[C@@H]1C(F)=C(CO)[C@@H](O)[C@H]1O,> 100,> 100,> 100,> 100,> 100,> 100,> 100,,,,
OCC1=C(F)[C@@H](n2ccc3c(O)ncnc32)[C@H](O)[C@@H]1O,> 100,> 100,> 100,> 100,> 100,> 100,> 100,,,,
Nc1ncnc2c1ccn2[C@@H]1C=C(CCO)[C@@H](O)[C@H]1O,26.3,32,34,> 100,30.2,42.1,> 100,,,,
Nc1ncnc2c1ncn2[C@@H]1C(F)=C(CCO)[C@@H](O)[C@H]1O,6.95,2.9,11.7,> 100,3.73,8.07,0.91,,,,
Nc1nccc2c1ncn2[C@@H]1C=C(CCO)[C@@H](O)[C@H]1O,8.01,17.9,76.5,> 100,28.2,28.9,3.76,,,,
"Nc1ncnc2c1ccn2C1C=C(CO)[C@@H](O)[C@H]1O (single isomer, unassigned) [DEAZANEPLANOCIN A]",0.79,10.4,1.84,1.62,1.2,1.17,> 100,,,,
Nc1ccn([C@@H]2O[C@H](CO)[C@@H](O)[C@@H]2O)c(=O)n1 [CYTARABINE],1.37,2.42,1.2,50.5,3.98,2.12,,,,,
COc1cc([C@@H]2c3cc4c(cc3[C@@H](O[C@@H]3O[C@@H]5CO[C@@H](C)O[C@H]5[C@H](O)[C@H]3O)[C@H]3COC(=O)[C@H]23)OCO4)cc(OC)c1O [ETOPOSIDE],7.7,,0.4,,0.3,2.8,,,,,
Nc1ncnc2c1ncn2[C@@H]1C(F)=C(CO)[C@@H](O)[C@H]1O [FLUORO-NEPLANOCIN A],1.4,2.8,1.2,1.4,2.2,0.8,0.24,,,0.43,Non-toxic
Nc1ncnc2c1ncn2[C@@H]1C=C(CO)[C@@H](O)[C@H]1O [NEOPLANOCIN A],0.4,0.9,1.22,3.7,0.7,4.5,0.47,,,,
